Reference: PMC8621770, “New Compounds with Bioisosteric Replacement of Classic Choline Kinase Inhibitors Show Potent Antiplasmodial Activity” (Pharmaceutics, 2021)
Where two headings read alike, the source gives them in different places.

Tests used:
P. falciparum strain 3D7 [1] = experiment: Antimalarial activity, P. falciparum lactate dehydrogenase growth inhibition assay; format: cell-based, Plasmodium falciparum; details: Plasmodium falciparum, Erythrocyte; P. falciparum 3D7 in human erythrocytes, 72 h, LDH readout; read-out: IC50 a (In vitro IC50 values against P. falciparum)
PfCK [2] = molecular target: T1, PfCK (Plasmodium falciparum, UniProt Q8IM71); experiment: Spectrophotometric coupled enzymatic assay for PfCK activity (substrate choline); format: biochemical; details: read-out: PfCK Fractional Activity at 25 µM
T1 construct: A truncated form of PfCK (Δ79-440) featuring an N-terminal 6× His-tag; 6xHis (N); host or cells: Escherichia coli BL21 (DE3) Star

[3] = Aggregation of compound solutions for the enzymatic assays; format: physicochemical; details: even at 5 mM concentration
From the text: As a result, it was difficult to measure their exact concentration, which is crucial for enzymatic assays.

P. falciparum strain 3D7 [4] = tested on: P. falciparum strain 3D7; parameters: method as in PMID 27616047, PMID 29880399, PMID 25089811; details: reference compounds; read-out: IC50 a (In vitro IC50 values against P. falciparum); cited from earlier work
PfCK [5] = molecular target: T1, PfCK; details: reference compounds, cited from earlier work; for inhibition of PfCK depending on substrate (in words): choline kinase or ethanolamine kinase activity; for IC50: read-out: IC50 PfCK b (compound concentration required to inhibit PfCK enzyme by 50%)

T1 sequence (Q8IM71 entry or part of it): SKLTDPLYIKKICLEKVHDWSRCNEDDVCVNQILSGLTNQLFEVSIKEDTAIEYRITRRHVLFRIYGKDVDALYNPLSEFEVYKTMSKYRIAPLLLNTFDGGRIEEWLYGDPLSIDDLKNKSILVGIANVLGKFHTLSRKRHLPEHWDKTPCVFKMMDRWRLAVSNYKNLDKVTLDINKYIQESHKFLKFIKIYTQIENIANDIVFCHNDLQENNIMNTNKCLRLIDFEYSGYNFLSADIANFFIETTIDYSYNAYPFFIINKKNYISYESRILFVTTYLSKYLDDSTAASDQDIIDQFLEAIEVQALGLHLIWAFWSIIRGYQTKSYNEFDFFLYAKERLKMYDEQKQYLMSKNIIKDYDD

SMILES	IC50 (P. falciparum strain 3D7 [1])	remaining activity at 25 µM (PfCK [2])	melting point	aggregation [3]	IC50 (P. falciparum strain 3D7 [4])	inhibition of PfCK depending on substrate (in words) (PfCK [5])	IC50 (PfCK [5])
[Br-].c1ccc(-c2ccc(C[n+]3cnc(N4CCCC4)c4ccsc43)cc2)cc1 [Fa-M3, 1-([1,1’-biphenyl]-4-ylmethyl)-4-(pyrrolidin-1-yl)thieno[2,3-d]pyrimidin-1-ium bromide]	0.0351 µM	96.9 ± 18.7%	275 to 278 °C	severe aggregation	–	–	–
CN(C)c1cc[n+](Cc2ccc(-c3ccc(C[n+]4ccc(N5CCCC5)cc4)cc3)cc2)cc1 [BR-23]	–	–	–	–	0.003 ± 0.0002 µM	only had inhibitory activity when the enzyme-substrate was ethanolamine	276 µM
[Br-].c1ccc(-c2ccc(C[n+]3ccc(N4CCCC4)c4sccc43)cc2)cc1 [Fa-M2, 4-([1,1’-biphenyl]-4-ylmethyl)-7-(pyrrolidin-1-yl)thieno[3,2-b]pyridin-4-ium bromide]	0.0489 µM	101 ± 13.7%	271 to 273 °C	severe aggregation	–	–	–
CN(C)c1cc[n+](Cc2ccc(CCCCc3ccc(C[n+]4ccc(N5CCCC5)cc4)cc3)cc2)cc1 [BR-25]	–	–	–	–	0.002 ± 0.0003 µM	only had inhibitory activity when the enzyme-substrate was ethanolamine	103 µM
[Br-].c1ccc(-c2ccc(C[n+]3cnc(N4CCCC4)c4sccc43)cc2)cc1 [Fa-M1, 1-([1,1’-biphenyl]-4-ylmethyl)-4-(pyrrolidin-1-yl)thieno[3,2-d]pyrimidin-1-ium bromide]	0.041 µM	54.6 ± 11.7%	295 to 298 °C	severe aggregation	–	–	–
Clc1ccc2c(N3CCCCCC3)cc[n+](Cc3ccc(OCCOc4ccc(C[n+]5ccc(N6CCCCCC6)c6ccc(Cl)cc65)cc4)cc3)c2c1 [10k]	–	–	–	–	0.035 ± 0.004 µM	–	10.9 ± 0.124 µM
CN(C)c1cc[n+](Cc2ccc(OCCOc3ccc(C[n+]4ccc(N(C)C)cc4)cc3)cc2)cc1 [10a]	–	–	–	–	0.016 ± 0.001 µM	no inhibition of the enzyme in its choline kinase or ethanolamine kinase activity is observed	–
